Measurements taken from patent US6737383B1, “Herbicidal oxadiazolidines” (priority 1999, dated 2004).

Tests used:
bamyardgrass = experiment: Test B flood test barnyardgrass; type: in vivo, Echinochloa crus-galli
In short: (§1)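 Plants were grown to the 2-leaf stage before treatment with test chemical, then held in a greenhouse for twelve to sixteen days. Injury was visually rated against untreated controls on a 0–10 scale, where 0 is no effect and 10 is complete control.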

duck salad = experiment: Test B flood test duck salad; type: in vivo, Heteranthera limosa
In short: as §1

purple nutsedge = experiment: Test B pre/postemergence purple nutsedge; type: in vivo, Cyperus rotundus
In short: (§2)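 Test chemicals in a non-phytotoxic solvent mixture with surfactant were sprayed preemergence onto planted seeds and postemergence onto plants 2 to 18 cm tall (1- to 4-leaf stage). After twelve to sixteen days in a greenhouse, injury was visually rated against untreated controls from 0 (no effect) to 10 (complete control).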

pigweed = experiment: Test B pre/postemergence pigweed; type: in vivo, Amaranthus retroflexus
In short: as §2

giant foxtail = experiment: Test B pre/postemergence giant foxtail; type: in vivo, Setaria faberii
In short: as §2

rape = experiment: Test B pre/postemergence rape; type: in vivo, Brassica napus
In short: as §2

morningglory = experiment: Test B pre/postemergence morningglory; type: in vivo, Ipomoea hederacea
In short: as §2

corn = experiment: Test B pre/postemergence corn; type: in vivo, Zea mays
In short: as §2

velvetleaf = experiment: Test B pre/postemergence velvetleaf; type: in vivo, Abutilon theophrasti
In short: as §2

wheat = experiment: Test B pre/postemergence wheat; type: in vivo, Triticum aestivum
In short: as §2

sugar beet = experiment: Test B pre/postemergence sugar beet; type: in vivo, Beta vulgaris
In short: as §2

wild oat = experiment: Test B pre/postemergence wild oat; type: in vivo, Avena fatua
In short: as §2

crabgrass = experiment: Test B pre/postemergence crabgrass; type: in vivo, Digitaria sanguinalis
In short: as §2

cocklebur = experiment: Test B pre/postemergence cocklebur; type: in vivo, Xanthium strumarium
In short: as §2

rice = experiment: Test B flood test rice; type: in vivo, Oryza sativa
In short: as §1

soybean = experiment: Test B pre/postemergence soybean; type: in vivo, Glycine max
In short: as §2

[1] = Rate 62 g/ha, flood test species, Pre-emergence, visual evaluation after twelve to sixteen days
[2] = Rate 125 g/ha, under heading Pre-emergence, flood test species, visual evaluation after twelve to sixteen days
[3] = Rate 250 g/ha, Pre-emergence (flood test species), scale 0 to 10, 0 is no effect, 10 is complete control
[4] = Rate 500 g/ha, Pre-emergence section of Table B, 0 to 10 scale (0 no effect, 10 complete control)
[5] = Postemergence, Rate 62 g/ha, scale 0 to 10, 0 is no effect, 10 is complete control
[6] = Postemergence, Rate 125 g/ha, scale of 0 to 10 where 0 is no effect and 10 is complete control
[7] = Preemergence, Rate 62 g/ha, scale of 0 to 10 where 0 is no effect and 10 is complete control
[8] = Preemergence, Rate 125 g/ha, scale of 0 to 10 where 0 is no effect and 10 is complete control
[9] = Preemergence, Rate 250 g/ha, scale 0 to 10 (0 no effect, 10 complete control)
[10] = Preemergence, Rate 500 g/ha, scale of 0 to 10 where 0 is no effect and 10 is complete control
[11] = Rate 500 g/ha, Postemergence, scale 0 to 10, 0 is no effect, 10 is complete control
[12] = Postemergence, Rate 250 g/ha, scale of 0 to 10, 0 is no effect, 10 is complete control

CC(C)N(C(=O)n1oc(=O)n(CCC(=O)N(C)C)c1=O)c1ccccc1 [Compound 671]
4: Crabgrass plant response rating (crabgrass; [7]) | Soybean plant response rating (soybean; [11])
10: Plant response rating, Redroot pigweed (pigweed; [9]) | Plant response rating, Redroot pigweed (pigweed; [10]) | Plant response rating, Giant foxtail (giant foxtail; [9]) | Plant response rating, Giant foxtail (giant foxtail; [10])
6: Plant response rating, Nutsedge (purple nutsedge; [9]) | Plant response rating, Nutsedge (purple nutsedge; [10]) | Morningglory plant response rating (morningglory; [11]) | Wheat plant response rating (wheat; [11])
2: Plant response rating, Nutsedge (purple nutsedge; [8]) | Plant response rating, Redroot pigweed (pigweed; [8]) | Rape plant response rating (rape; [11]) | Plant response rating, Morningglory (morningglory; [8]) | Velvetleaf plant response rating (velvetleaf; [7]) | Plant response rating, Soybean (soybean; [5]) | Soybean plant response rating (soybean; [6])
3: Plant response rating, Corn (corn; [9]) | Velvetleaf plant response rating (velvetleaf; [11]) | Plant response rating, Wheat (wheat; [9]) | Sugarbeets plant response rating (sugar beet; [11]) | Plant response rating, Soybean (soybean; [10])
7: Plant response rating, Velvetleaf (velvetleaf; [8]) | Plant response rating, Velvetleaf (velvetleaf; [9]) | Plant response rating, Wild oats (wild oat; [9])
5: Redroot pigweed plant response rating (pigweed; [11]) | Plant response rating, Giant foxtail (giant foxtail; [5]) | Giant foxtail plant response rating (giant foxtail; [6]) | Plant response rating, Morningglory (morningglory; [9]) | Corn plant response rating (corn; [11]) | Plant response rating, Wild oats (wild oat; [10])
0: Plant response rating, Barnyardgrass (0 to 10 scale, 0 is no effect, 10 is complete control) (bamyardgrass; [1]) | Barnyardgrass plant response rating (0 to 10 scale, 0 is no effect, 10 is complete control) (bamyardgrass; [2]) | Barnyardgrass plant response rating (bamyardgrass; [3]) | Barnyardgrass plant response rating (bamyardgrass; [4]) | Plant response rating, Ducksalad (0 to 10 scale, 0 is no effect, 10 is complete control) (duck salad; [1]) | Ducksalad plant response rating (0 to 10 scale, 0 is no effect, 10 is complete control) (duck salad; [2]) | Ducksalad plant response rating (duck salad; [3]) | Ducksalad plant response rating (duck salad; [4]) | Plant response rating, Nutsedge (purple nutsedge; [5]) | Nutsedge plant response rating (purple nutsedge; [6]) | Nutsedge plant response rating (purple nutsedge; [7]) | Nutsedge plant response rating (purple nutsedge; [11]) | Plant response rating, Redroot pigweed (pigweed; [5]) | Redroot pigweed plant response rating (pigweed; [7]) | Plant response rating, Rape (rape; [5]) | Rape plant response rating (rape; [6]) | Rape plant response rating (rape; [7]) | Plant response rating, Rape (rape; [8]) | Plant response rating, Rape (rape; [9]) | Morningglory plant response rating (morningglory; [7]) | Plant response rating, Corn (corn; [5]) | Corn plant response rating (corn; [6]) | Corn plant response rating (corn; [12]) | Corn plant response rating (corn; [7]) | Plant response rating, Corn (corn; [8]) | Plant response rating, Velvetleaf (velvetleaf; [5]) | Velvetleaf plant response rating (velvetleaf; [6]) | Plant response rating, Wheat (wheat; [5]) | Wheat plant response rating (wheat; [6]) | Wheat plant response rating (wheat; [7]) | Plant response rating, Wheat (wheat; [8]) | Plant response rating, Sugarbeets (sugar beet; [5]) | Sugarbeets plant response rating (sugar beet; [6]) | Plant response rating, Wild oats (wild oat; [5]) | Wild oats plant response rating (wild oat; [6]) | Wild oats plant response rating (wild oat; [7]) | Plant response rating, Wild oats (wild oat; [8]) | Wild oats plant response rating (wild oat; [11]) | Plant response rating, Cocklebur (cocklebur; [5]) | Cocklebur plant response rating (cocklebur; [6]) | Cocklebur plant response rating (cocklebur; [12]) | Cocklebur plant response rating (cocklebur; [7]) | Plant response rating, Cocklebur (cocklebur; [8]) | Plant response rating, Cocklebur (cocklebur; [9]) | Plant response rating, Rice (0 to 10 scale, 0 is no effect, 10 is complete control) (rice; [1]) | Rice plant response rating (0 to 10 scale, 0 is no effect, 10 is complete control) (rice; [2]) | Rice plant response rating (rice; [3]) | Rice plant response rating (rice; [4]) | Soybean plant response rating (soybean; [7]) | Plant response rating, Soybean (soybean; [8]) | Plant response rating, Soybean (soybean; [9])
8: Giant foxtail plant response rating (giant foxtail; [7]) | Plant response rating, Rape (rape; [10]) | Plant response rating, Morningglory (morningglory; [10]) | Plant response rating, Wheat (wheat; [10]) | Crabgrass plant response rating (crabgrass; [12]) | Plant response rating, Crabgrass (crabgrass; [8]) | Plant response rating, Crabgrass (crabgrass; [9])
1: Redroot pigweed plant response rating (pigweed; [6]) | Plant response rating, Morningglory (morningglory; [5]) | Morningglory plant response rating (morningglory; [6]) | Morningglory plant response rating (morningglory; [12]) | Sugarbeets plant response rating (sugar beet; [7]) | Plant response rating, Crabgrass (crabgrass; [5]) | Crabgrass plant response rating (crabgrass; [6]) | Plant response rating, Cocklebur (cocklebur; [10]) | Cocklebur plant response rating (cocklebur; [11])
9: Giant foxtail plant response rating (giant foxtail; [12]) | Plant response rating, Giant foxtail (giant foxtail; [8]) | Giant foxtail plant response rating (giant foxtail; [11]) | Plant response rating, Corn (corn; [10]) | Plant response rating, Velvetleaf (velvetleaf; [10]) | Plant response rating, Sugarbeets (sugar beet; [8]) | Plant response rating, Sugarbeets (sugar beet; [9]) | Plant response rating, Sugarbeets (sugar beet; [10]) | Plant response rating, Crabgrass (crabgrass; [10]) | Crabgrass plant response rating (crabgrass; [11])
